Legend:
P2X4 [1] = target: T1, P2X4 (Homo sapiens, UniProt Q99571); assay: Assay A: human P2X4 receptor cell line, FLIPR calcium assay (Fluo-8, agonist Bz-ATP at EC80); format: cell-based; set-up: host or cells: HEK 293 (recombinant, constitutively expressing; with mitochondrial photina in Assay B); conditions: HEK human P2X4 cells, Fluo-8 FLIPR; for IC50: Bz-ATP at EC80, average values; for Emax: percentage of maximal inhibition, read-out: human P2X4 Assay A avg Efficacy
T1 sequence (Q99571 1-388): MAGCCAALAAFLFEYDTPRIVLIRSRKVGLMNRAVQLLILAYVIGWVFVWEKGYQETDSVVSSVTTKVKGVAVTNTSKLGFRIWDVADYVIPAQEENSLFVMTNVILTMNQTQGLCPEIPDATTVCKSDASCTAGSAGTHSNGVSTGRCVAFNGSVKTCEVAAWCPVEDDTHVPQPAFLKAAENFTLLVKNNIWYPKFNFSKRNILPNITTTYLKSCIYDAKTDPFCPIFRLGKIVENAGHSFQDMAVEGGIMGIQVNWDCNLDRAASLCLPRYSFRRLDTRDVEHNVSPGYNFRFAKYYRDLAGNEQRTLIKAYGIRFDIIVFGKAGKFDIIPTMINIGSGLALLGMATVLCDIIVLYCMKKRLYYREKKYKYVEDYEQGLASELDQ
Procedure, shortened: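 HEK cells expressing human P2X4 (20,000/well, plated ~20 h earlier) loaded 30 min with 5 μM Fluo-8 in HBSS/HEPES buffer with 1.8 mM CaCl2, 1 mM MgCl2, 2 mM probenecid, pH 7.4. Antagonist preincubated 30 min at room temperature (0.5% DMSO), then Bz-ATP at EC80. Peak fluorescence over 120 s, normalized to DMSO; triplicate IC50 and Hill fits.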

P2X4 [2] = target: T1, P2X4; assay: Assay B: human P2X4 receptor cell line, mitochondrial photina luminescence (agonist Bz-ATP at EC50); format: cell-based; set-up: host or cells: HEK 293 (recombinant, constitutively expressing; with mitochondrial photina in Assay B); conditions: HEK human P2X4 cell line, photina luminescence, agonist Bz-ATP at EC50, average; for Emax: read-out: human P2X4 Assay B avg Efficacy
Procedure, shortened: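 Recombinant cell line constitutively expressing human P2X4 and mitochondrial photina photoprotein, reconstituted with coelenterazine. Receptor stimulated with Bz-ATP at EC50; calcium influx read immediately as luminescence.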

Row | SMILES | IC50 (P2X4 [1]) [nM] | Emax (P2X4 [1]) [%] | IC50 (P2X4 [2]) [nM] | Emax (P2X4 [2]) [%]
1 | Cc1c(Br)ccc(Cl)c1CC(=O)Nc1ccc(Oc2cccc(Cl)c2)c(S(N)(=O)=O)c1 [Example 133, 2-(3-Bromo-6-chloro-2-methylphenyl)-N-[4-(3-chlorophenoxy)-3-sulfamoylphenyl]acetamide] | 375 | 75 | 4100 | 92
2 | NS(=O)(=O)c1cc(NC(=O)Cc2cc(OC(F)(F)C(F)F)ccc2Cl)ccc1Oc1cccc(Cl)c1 [Example 134, N-[4-(3-Chlorophenoxy)-3-sulfamoylphenyl]-2-[2-chloro-5-(1,1,2,2-tetrafluoroethoxy)phenyl]acetamide] | 688 | 83 | 1350 | 77
3 | NS(=O)(=O)c1cc(NC(=O)Cc2ccc(C(F)(F)F)cc2Cl)ccc1Oc1cccc(Cl)c1 [Example 135, N-[4-(3-Chlorophenoxy)-3-sulfamoylphenyl]-2-[2-chloro-4-(trifluoromethyl)phenyl]acetamide] | 631 | 75 | 870 | 45
4 | CS(=O)(=O)c1cccc(COc2ccc(NC(=O)Cc3ccccc3Cl)cc2S(N)(=O)=O)c1 [Example 136, 2-(2-Chlorophenyl)-N-(4-{[3-(methylsulfonyl)benzyl]oxy}-3-sulfamoylphenyl)acetamide] | 10 | 90 | 102 | 83
5 | COc1cccc(COc2ccc(NC(=O)Cc3ccccc3Cl)cc2S(N)(=O)=O)c1 [Example 140, 2-(2-Chlorophenyl)-N-{4-[(3-methoxybenzyl)oxy]-3-sulfamoylphenyl}acetamide] | 8 | 103 | 44 | 67
6 | N#Cc1cccc(COc2ccc(NC(=O)Cc3ccccc3Cl)cc2S(N)(=O)=O)c1 [Example 142, 2-(2-Chlorophenyl)-N-{4-[(3-cyanobenzyl)oxy]-3-sulfamoylphenyl}acetamide] | 43 | 90 | 60 | 70
7 | NS(=O)(=O)c1cc(NC(=O)Cc2ccccc2Cl)ccc1OCc1ccc(F)cc1 [Example 143, 2-(2-Chlorophenyl)-N-{4-[(4-fluorobenzyl)oxy]-3-sulfamoylphenyl}acetamide] | 9 | 72 | 39 | 71
8 | NS(=O)(=O)c1cc(NC(=O)Cc2ccccc2Cl)ccc1OCc1ccccc1Cl [Example 144, N-{4-[(2-Chlorobenzyl)oxy]-3-sulfamoylphenyl}-2-(2-chlorophenyl)acetamide] | 86 | 93 | 129 | 76
9 | NS(=O)(=O)c1cc(NC(=O)Cc2ccccc2Cl)ccc1OCc1cccnc1 [Example 149, 2-(2-Chlorophenyl)-N-[4-(pyridin-3-ylmethoxy)-3-sulfamoylphenyl]acetamide] | 45 | 81 | 118 | 77
10 | NS(=O)(=O)c1cc(NC(=O)Cc2ccccc2Cl)ccc1OCc1ccncc1 [Example 151, 2-(2-Chlorophenyl)-N-[4-(pyridin-4-ylmethoxy)-3-sulfamoylphenyl]acetamide] | 143 | 88 | 69 | 97
11 | NS(=O)(=O)c1cc(NC(=O)Cc2ccccc2Cl)ccc1OCCc1ccccc1 [Example 155, 2-(2-Chlorophenyl)-N-[4-(2-phenylethoxy)-3-sulfamoylphenyl]acetamide] |  | 87 |  | 65
12 | NS(=O)(=O)c1cc(NC(=O)Cc2ccccc2Cl)ccc1Oc1cccc(N2CCOCC2=O)c1 [Example 173, 2-(2-Chlorophenyl)-N-{4-[3-(3-oxomorpholin-4-yl)phenoxy]-3-sulfamoylphenyl}acetamide] |  | 100 |  | 92
13 | NS(=O)(=O)c1cc(NC(=O)Cc2ccccc2Cl)ccc1Oc1ccc(N2CCOCC2=O)cc1 [Example 174, 2-(2-Chlorophenyl)-N-{4-[4-(3-oxomorpholin-4-yl)phenoxy]-3-sulfamoylphenyl}acetamide] |  | 74 |  | 64
14 | NS(=O)(=O)c1cc(NC(=O)Cc2ccccc2Cl)ccc1Oc1ccc(N2CCCCC2=O)cc1 [Example 175, 2-(2-Chlorophenyl)-N-{4-[4-(2-oxopiperidin-1-yl)phenoxy]-3-sulfamoylphenyl}acetamide] | 1300 | 52 | 15000 | 67

Results, then the compound that gave them:

Row | IC50 (P2X4 [1]) [nM] | Emax (P2X4 [1]) [%] | IC50 (P2X4 [2]) [nM] | Emax (P2X4 [2]) [%] | SMILES
15 | 1170 | 83 | 1300 | 69 | NS(=O)(=O)c1cc(NC(=O)Cc2c(Cl)ccc(C3CC3)c2Cl)ccc1Oc1cccc(Cl)c1 [Example 129, N-[4-(3-Chlorophenoxy)-3-sulfamoylphenyl]-2-(2,6-dichloro-3-cyclopropylphenyl)acetamide]
16 | 979 | 91 | 1050 | 70 | NS(=O)(=O)c1cc(NC(=O)Cc2c(Cl)ccc(C(F)(F)F)c2Cl)ccc1Oc1cccc(Cl)c1 [Example 130, N-[4-(3-Chlorophenoxy)-3-sulfamoylphenyl]-2-[2,6-dichloro-3-(trifluoromethyl)phenyl]acetamide]
17 | 284 | 77 | 2400 | 86 | NS(=O)(=O)c1cc(NC(=O)Cc2c(Cl)ccc(Br)c2Cl)ccc1Oc1cccc(Cl)c1 [Example 131, 2-(3-bromo-2,6-dichlorophenyl)-N-[4-(3-chlorophenoxy)-3-sulfamoylphenyl]acetamide]
18 | 541 | 72 | 640 | 102 | Cc1ccc(Br)c(Cl)c1CC(=O)Nc1ccc(Oc2cccc(Cl)c2)c(S(N)(=O)=O)c1 [Example 132, 2-(3-Bromo-2-chloro-6-methylphenyl)-N-[4-(3-chlorophenoxy)-3-sulfamoylphenyl]acetamide]
19 |  | 96 |  | 79 | NS(=O)(=O)c1cc(NC(=O)Cc2ccccc2Cl)ccc1OCc1ccccn1 [Example 150, 2-(2-Chlorophenyl)-N-[4-(pyridin-2-ylmethoxy)-3-sulfamoylphenyl]acetamide]
20 |  | 67 |  | 55 | NS(=O)(=O)c1cc(NC(=O)Cc2ccccc2Cl)ccc1OCC1CCC1 [Example 157, 2-(2-Chlorophenyl)-N-[4-(cyclobutylmethoxy)-3-sulfamoylphenyl]acetamide]
21 |  | 91 |  | 75 | NS(=O)(=O)c1cc(NC(=O)Cc2ccccc2Cl)ccc1OCC1CCO1 (stereo not shown) [Example 158, 2-(2-Chlorophenyl)-N-[4-(oxetan-2-ylmethoxy)-3-sulfamoylphenyl]acetamide]
22 | 162 | 59 | 97 | 43 | NS(=O)(=O)c1cc(NC(=O)Cc2ccccc2Cl)ccc1OCC1CCCOC1 (stereo not shown) [Example 165, 2-(2-Chlorophenyl)-N-[3-sulfamoyl-4-(tetrahydro-2H-pyran-3-ylmethoxy)phenyl]acetamide]
23 |  | 87 |  | 80 | NS(=O)(=O)c1cc(NC(=O)Cc2cccc(F)c2Cl)ccc1OCC1CCOCC1 [Example 167, 2-(2-Chloro-3-fluorophenyl)-N-[3-sulfamoyl-4-(tetrahydro-2H-pyran-4-ylmethoxy)phenyl]acetamide]
24 | 86 | 90 | 181 | 85 | NS(=O)(=O)c1cc(NC(=O)Cc2ccccc2Cl)cnc1Oc1cccc(C(F)(F)F)c1 [Example 168, 2-(2-chlorophenyl)-N-{5-sulfamoyl-6-[3-(trifluoromethyl)phenoxy]pyridin-3-yl}acetamide]
25 | 274 | 74 | 1030 | 75 | NS(=O)(=O)c1cc(NC(=O)Cc2ccccc2)cnc1Oc1cccc(C(F)(F)F)c1 [Example 169, 2-Phenyl-N-{5-sulfamoyl-6-[3-(trifluoromethyl)phenoxy]pyridin-3-yl}acetamide]
26 | 459 | 82 | 880 | 53 | NS(=O)(=O)c1cc(NC(=O)Cc2ccccc2Cl)ccc1Oc1cccc(N2CCCCC2=O)c1 [Example 176, 2-(2-Chlorophenyl)-N-{4-[3-(2-oxopiperidin-1-yl)phenoxy]-3-sulfamoylphenyl}acetamide]
27 | 265 | 80 | 970 | 69 | C=C(C)c1cccc(Oc2ccc(NC(=O)Cc3ccccc3Cl)cc2S(N)(=O)=O)c1 [Example 177, 2-(2-Chlorophenyl)-N-{4-[3-(prop-1-en-2-yl)phenoxy]-3-sulfamoylphenyl}acetamide]
